Results on four compounds are retold here after ChEMBL document CHEMBL1149010, “A comparative study on anti-inflammatory activities of the enantiomers, shikonin and alkannin” (1986).

Type in all cases: functional
Experiment [1] concerns Rattus norvegicus. In words: Decrease in histamine-induced capillary permeability in Wistar rat assessed as inhibition of pontamine sky blue 6BX dye leakage at 100 ug treated topically relative to control.
For experiment [2], the system named is Rattus norvegicus. In words: Decrease in histamine-induced capillary permeability in Wistar rat assessed as inhibition of pontamine sky blue 6BX dye leakage at 50 ug treated topically relative to control.
The subject of experiment [3] is Rattus norvegicus. In words: Antiinflammatory activity against thermal injury-induced edema in Wistar rat skin assessed as inhibition of edema at 50 ug treated topically relative to control. Further details: scale not given: the % may be the effect or the level left.
For experiment [4], the system named is Rattus norvegicus. Kind of experiment: Antiinflammatory activity against thermal injury-induced edema in Wistar rat skin assessed as inhibition of edema at 100 ug treated topically relative to control. Further details: scale not given: the % may be the effect or the level left.

For `CC(C)=CC[C@@H](O)C1=CC(=O)c2c(O)ccc(O)c2C1=O` (stereo in doubt; form 1) [SHIKONIN], the “inhibition (INH)” value with Rattus norvegicus [1] came to 22.3%; in the experiment on Rattus norvegicus [2] it was 13.7%. The Activity with Rattus norvegicus [3] is recorded as 22%; in the experiment on Rattus norvegicus [4], 20.6%.

On to `CCCCC1C(=O)N(c2ccccc2)N(c2ccccc2)C1=O` [PHENYLBUTAZONE], for which the Activity with Rattus norvegicus [3] is listed as 38.9%.

In the case of `CC(C)=CC[C@@H](O)C1=CC(=O)c2c(O)ccc(O)c2C1=O` (stereo in doubt; form 2) [SHIKONIN], the Activity in the experiment on Rattus norvegicus [3] is 26.7%; in the experiment with Rattus norvegicus [4], 23.2%.

For `CC(C)=CC[C@H](O)C1=CC(=O)c2c(O)ccc(O)c2C1=O` [ALKANNIN], the “inhibition (INH)” value was 21.3% in the experiment on Rattus norvegicus [1] and 7.9% in the experiment with Rattus norvegicus [2]. The Activity in the experiment with Rattus norvegicus [3] is reported as 21.3%; with Rattus norvegicus [4], 21.7%.
